From paper PMC8651387, “Synthesis and Evaluation of the Acetylcholinesterase Inhibitory Activities of Some Flavonoids Derived from Naringenin” (The Scientific World Journal, 2021) come the findings set out here.

One series concerns the target AChE (Homo sapiens, UniProt P22303). Put plainly: biochemical. Conditions: for IC50: pH 8, 25°C, triplicate.
Series [1] is described as follows: Solubility in water and solvents (compound description).
[2] abbreviates: AChE 0.25 UI/mL, read-out: IC50.

SMILES strings stand for the structures. “And” between values parts separate entries of the source, which are not always exact repeats. Identical values can stand only once. Like-named read-outs stand apart in the source and are kept apart here.

Sequence of AChE (P22303 32-614): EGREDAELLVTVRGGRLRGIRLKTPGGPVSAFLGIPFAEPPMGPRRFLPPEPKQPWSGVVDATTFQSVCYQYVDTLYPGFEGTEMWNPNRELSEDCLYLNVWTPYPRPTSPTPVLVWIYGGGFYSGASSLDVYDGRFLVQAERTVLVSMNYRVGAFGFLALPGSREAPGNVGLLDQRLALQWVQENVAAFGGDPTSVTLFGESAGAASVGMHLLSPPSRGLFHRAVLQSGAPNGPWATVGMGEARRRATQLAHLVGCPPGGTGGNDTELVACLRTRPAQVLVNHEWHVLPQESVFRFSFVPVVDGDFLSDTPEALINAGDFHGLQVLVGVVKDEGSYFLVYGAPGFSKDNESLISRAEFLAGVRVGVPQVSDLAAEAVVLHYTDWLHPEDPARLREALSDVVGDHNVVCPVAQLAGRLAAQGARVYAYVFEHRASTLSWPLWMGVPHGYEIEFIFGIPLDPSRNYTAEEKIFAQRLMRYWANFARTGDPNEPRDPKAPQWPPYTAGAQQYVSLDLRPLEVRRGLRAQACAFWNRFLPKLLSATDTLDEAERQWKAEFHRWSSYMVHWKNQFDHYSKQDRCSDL

The term IC50 denotes the midpoint of a concentration-inhibition curve. Consider `C=CCOc1ccc(C2CC(=O)c3c(O)cc(OCC=C)cc3O2)cc1` (stereo not drawn) [Compound 6, 4′,7-Diallyloxy-5-hydroxyflavanone], for which, at AChE, the “AChE inhibitory activity (in words)” value was “negligible biological effects”. The IC50 on AChE (setting [2]) was more than 100 µM. In series [1], the Solubility in acetone entry is recorded as “soluble”, the Solubility in dichloromethane result is listed as “highly soluble”, the Solubility in methanol result is “sparingly soluble” and the Solubility in water result is on record as “insoluble”.

On to `O=C1C[C@@H](c2ccc(O)cc2)Oc2cc(O)cc(O)c21` [Naringenin], for which, on AChE (IC50, AChE 0.25 UI/mL), the IC50 worked out at 150 ± 4.6 µM.

As for `C=CCOc1ccc(/C=C/C(=O)c2c(O)cc(OCC=C)cc2OCC=C)cc1` [Compound 7, (E)-2′,4,4′-Triallyloxy-6′-hydroxychalcone], the “AChE inhibitory activity (in words)” value at AChE is on record as “improved activities over naringenin”. On AChE (setting [2]), the IC50 was < 100 µM and 13 µM. Moreover, in series [1], the Solubility in acetone result was “soluble”, the Solubility in dichloromethane result was “highly soluble”, the Solubility in methanol entry is “sparingly soluble” and the Solubility in water entry is given as “insoluble”.

For `CCOc1ccc(/C=C/C(=O)c2c(O)cc(OCC)cc2OCC)cc1` [Compound 4, (E)-2′,4,4′-Triethoxy-6′-hydroxychalcone], the “AChE inhibitory activity (in words)” value on AChE is listed as “improved activities over naringenin”. Moreover, at AChE (setting [2]), the IC50 was < 100 µM and 39.8 µM. Also, in series [1], the Solubility in acetone result was “soluble”, the Solubility in dichloromethane result is “highly soluble”, the Solubility in methanol result is given as “slightly soluble” and the Solubility in water result is reported as “insoluble”.

On to `COc1ccc(C2CC(=O)c3c(O)cc(OC)cc3O2)cc1` (stereo not drawn) [Compound 2, 5-Hydroxy-4′,7-dimethoxyflavanone], for which, on AChE, the “AChE inhibitory activity (in words)” value was “improved activities over naringenin”. Moreover, at AChE (setting [2]), the IC50 was < 100 µM and 75 µM. In series [1], the Solubility in acetone result is “soluble”, the Solubility in dichloromethane result is on record as “highly soluble”, the Solubility in methanol result is given as “sparingly soluble” and the Solubility in water entry is “insoluble”.

On AChE (IC50, AChE 0.25 UI/mL), `COc1cc(O)c2c(c1)OC(c1ccc(O)cc1)CC2=O` (stereo not drawn) [Compound 1, 4′,5-Dihydroxy-7-methoxyflavanone] had an IC50 of more than 100 µM.

Consider `COc1ccc(/C=C/C(=O)c2c(OC)cc(OC)cc2OC)cc1` [Compound 3, (E)-2′,4,4′,6′-Tetramethoxychalcone], for which the IC50 at AChE (IC50, AChE 0.25 UI/mL) was more than 100 µM. In series [1], the Solubility in acetone result was “soluble”, the Solubility in dichloromethane result is “highly soluble”, the Solubility in methanol entry was “sparingly soluble” and the Solubility in water result is on record as “insoluble”.

On to `C=CCOc1cc(O)c2c(c1)OC(c1ccc(O)cc1)CC2=O` (stereo not drawn) [Compound 5, 7-Allyloxy-4′,5-dihydroxyflavanone], for which, on AChE, the “AChE inhibitory activity (in words)” value is “improved activities over naringenin”. On AChE (setting [2]), the IC50 is < 100 µM and 48.4 µM. Further, in series [1], the Solubility in acetone result is “highly soluble”, the Solubility in dichloromethane result is “sparingly soluble”, the Solubility in methanol result is on record as “sparingly soluble” and the Solubility in water entry is given as “insoluble”.

For `O=C(/C=C/c1ccc(OCc2ccccc2)cc1)c1c(OCc2ccccc2)cc(OCc2ccccc2)cc1OCc1ccccc1` [Compound 9, (E)-2′,4,4′,6′-Tetrabenzyloxychalcone], the “AChE inhibitory activity (in words)” value at AChE is reported as “negligible biological effects”. Further, the IC50 at AChE (setting [2]) was more than 100 µM. In series [1], the Solubility in acetone entry was “soluble”, the Solubility in dichloromethane result is recorded as “highly soluble”, the Solubility in methanol result was “slightly soluble” and the Solubility in water result is “insoluble”.

Consider `O=C(/C=C/c1ccc(OCc2ccccc2)cc1)c1c(O)cc(OCc2ccccc2)cc1OCc1ccccc1` [Compound 8, (E)-2′,4,4′-Tribenzyloxy-6′-hydroxychalcone], for which, on AChE (setting [2]), the IC50 was more than 100 µM. Further, in series [1], the Solubility in acetone result was “soluble”, the Solubility in dichloromethane entry is “soluble”, the Solubility in methanol entry was “insoluble” and the Solubility in water entry is on record as “insoluble”.
